Source: ChEMBL document CHEMBL1201862, “PubChem BioAssay data set” (2004)
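48-hour exposure; five concentrations; linearly interpolated endpoints. Abbreviation: GI50, concentration required for 50% inhibition of growth.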 Calls of active or inactive are those of the source. Cut-off read from the data, not from the text of the source: active = GI50 up to about 1.1 µM and inactive = higher.

Tests used:
Test in all cases: DTP human tumour cell line panel, 48 h
RXF 393 = test system: RXF 393
M14 = test system: M14
SK-MEL-28 = test system: SK-MEL-28
NCI-H23 = test system: NCI-H23
COLO 205 = test system: COLO 205
HCT-116 = test system: HCT-116
OVCAR-3 = test system: OVCAR-3
OVCAR-8 = test system: OVCAR-8
SW-620 = test system: SW-620
786-0 = test system: 786-0
HOP-92 = test system: HOP-92
IGROV-1 = test system: IGROV-1
NCI-H522 = test system: NCI-H522
ACHN = test system: ACHN
NCI-H460 = test system: NCI-H460
UO-31 = test system: UO-31
KM12 = test system: KM12

Measured: GI50

O=[N+]([O-])c1c(/C=N/Nc2ccccc2)oc(-c2ccc3c(c2)OCO3)c1-c1ccc2c(c1)OCO2
inactive: RXF 393 36.5 µM | M14 3 µM | SK-MEL-28 23.4 µM | NCI-H23 51.2 µM | COLO 205 18.2 µM | HCT-116 8.47 µM | OVCAR-3 5.77 µM | OVCAR-8 5.56 µM | SW-620 11.1 µM | 786-0 19.2 µM | HOP-92 19.8 µM | IGROV-1 6.14 µM | NCI-H522 27 µM | ACHN 4.28 µM

COc1ccc(CNc2cnc3cc(N)ccc3n2)cc1
inactive: RXF 393 > 100 µM | M14 > 100 µM | SK-MEL-28 > 100 µM | NCI-H23 > 100 µM | NCI-H460 > 100 µM | COLO 205 > 100 µM | HCT-116 > 100 µM | OVCAR-3 > 100 µM | OVCAR-8 > 100 µM | SW-620 > 100 µM | 786-0 > 100 µM | UO-31 26.4 µM | KM12 > 100 µM | IGROV-1 > 100 µM | NCI-H522 > 100 µM | ACHN > 100 µM

O=C(c1ccccc1)C1CCCCN1C(=O)c1ccccc1 (stereo not drawn)
inactive: RXF 393 > 100 µM | M14 > 100 µM | SK-MEL-28 > 100 µM | NCI-H460 > 100 µM | COLO 205 > 100 µM | HCT-116 > 100 µM | OVCAR-3 > 100 µM | OVCAR-8 > 100 µM | SW-620 > 100 µM | 786-0 > 100 µM | UO-31 > 100 µM | KM12 > 100 µM | IGROV-1 > 100 µM | NCI-H522 > 100 µM | ACHN > 100 µM

O=C1c2ccccc2N2OC3C4CCC(C4)C3C12c1ccccc1 (stereo not drawn)
inactive: RXF 393 16.5 µM | M14 92.5 µM | SK-MEL-28 87.3 µM | NCI-H23 94.6 µM | COLO 205 > 100 µM | HCT-116 45.5 µM | OVCAR-8 > 100 µM | SW-620 > 100 µM | 786-0 > 100 µM | UO-31 71.3 µM | HOP-92 40.8 µM | IGROV-1 > 100 µM | NCI-H522 36 µM | ACHN > 100 µM

Cc1nc2ccccc2c(=O)n1/N=C(\N=N\c1ccccc1Cl)c1ccccc1
inactive: RXF 393 23 µM | M14 18.1 µM | SK-MEL-28 41.5 µM | NCI-H23 44.5 µM | NCI-H460 23.9 µM | COLO 205 21.5 µM | HCT-116 > 10 µM | OVCAR-8 31.3 µM | SW-620 22.7 µM | 786-0 19 µM | UO-31 28 µM | HOP-92 36.5 µM | IGROV-1 19.4 µM | NCI-H522 19.1 µM

COC(=O)C(C(=O)C(=O)Nc1cccc(C)c1)C1=NC(N)SS1 (stereo not drawn)
inactive: RXF 393 > 100 µM | M14 > 100 µM | SK-MEL-28 > 100 µM | NCI-H23 > 100 µM | NCI-H460 > 100 µM | COLO 205 > 100 µM | HCT-116 > 100 µM | OVCAR-3 > 100 µM | OVCAR-8 > 100 µM | SW-620 > 100 µM | 786-0 > 100 µM | UO-31 > 100 µM | KM12 > 100 µM | IGROV-1 > 100 µM | NCI-H522 > 100 µM | ACHN > 100 µM

CC12CCC(CC1)C(C)(C)O2 [EUCALYPTOL]
inactive: RXF 393 13.6 µM | M14 > 100 µM | SK-MEL-28 62.4 µM | NCI-H23 16.9 µM | COLO 205 18.6 µM | OVCAR-3 36.1 µM | OVCAR-8 24.4 µM | 786-0 > 100 µM | UO-31 27.7 µM | KM12 33.9 µM | HOP-92 24.3 µM | IGROV-1 30.4 µM | NCI-H522 10.1 µM | ACHN > 100 µM
